Measurements published in patent US9447044B2, “Thioaryl derivatives as GPR120 agonists” (LG LIFE SCIENCES LTD., priority 2012, dated 2016).

molecular target: T1, hGPR120 (Homo sapiens, UniProt Q5NUL3); assay: Measurement of activity of GPR120 agonist (cell-based assay), calcium fluorescence; settings: CHO-K1 cells expressing Ga16 and hGPR120; Calcium 5 dye fluorescence; activity class
T1 construct: expressed in transfected cells; host or cells: CHO-K1
T1 sequence (Q5NUL3 1-361): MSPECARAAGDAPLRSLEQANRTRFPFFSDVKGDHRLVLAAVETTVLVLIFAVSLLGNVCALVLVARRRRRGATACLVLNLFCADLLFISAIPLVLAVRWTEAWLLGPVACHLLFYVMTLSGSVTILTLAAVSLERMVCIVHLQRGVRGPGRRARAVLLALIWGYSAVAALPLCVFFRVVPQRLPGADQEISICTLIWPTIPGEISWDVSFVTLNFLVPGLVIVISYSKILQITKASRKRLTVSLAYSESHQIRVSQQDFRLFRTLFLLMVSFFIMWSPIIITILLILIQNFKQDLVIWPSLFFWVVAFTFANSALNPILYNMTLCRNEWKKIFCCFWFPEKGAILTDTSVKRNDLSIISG
Protocol: CHO-K1 cells expressing Ga16 and hGPR120 were dispensed into each well of a 96-well plate (3×10^4 cells/100 μl/well) and then incubated in 5% CO2, 37° C. incubator for 18 hours. Each well was treated with 100 μl of Calcium 5 dye (Molecular Devices) solution including 2% DMSO and then incubated in 5% CO2, 37° C. incubator for 1 hour. Serially diluted GPR120 agonists were prepared to a final concentration of 0.5% DMSO in a 96-well plate. Each well was treated with 50 μl of the agonist compounds using Plexstation II, and then fluorescence was measured at Ex 485 nm, Em 525 nm.
Fluorescence increased by the serially diluted GPR120 agonists is calculated as a relative percent (%) value based on the fluorescence represented by the treatment of 0.1% DMSO only. […] The calculation of measurement was carried out by using statistical software (Prizm).
Activity is denoted based on the following criteria: A=>20 μM, B=[…], C=2˜0.2 μM, D=<0.2 μM

| EC50 | SMILES |
| --- | --- |
| < 200 nM | CC(Cc1cc(F)c(OCc2cccnc2SC2CCC2)c(F)c1)C(=O)O (centres unmarked) [Example 56, 3-[4-(2-cyclobutylsulfanyl-pyridin-3-ylmethoxy)-3,5-difluoro-phenyl]-2-methyl-propionic acid] |
| < 200 nM | COc1cc(CCC(=O)O)ccc1OCc1cccnc1SC1CCCC1 [Example 58, 3-[4-(2-cyclopentylsulfanyl-pyridin-3-ylmethoxy)-3-methoxy-phenyl]-propionic acid] |
| 200 to 2000 nM | CC(C)Sc1ncccc1COc1ccc2c(c1)OCC2CC(=O)O (centres unmarked) [Example 59, [6-(2-isopropylsulfanyl-pyridin-3-ylmethoxy)-2,3-dihydro-benzofuran-3-yl]-acetic acid] |
| < 200 nM | CC(C)Sc1ncccc1COc1ccc(CC(C)C(=O)O)cc1F (centres unmarked) [Example 60, 3-[3-fluoro-4-(2-isopropylsulfanyl-pyridin-3-ylmethoxy)-phenyl]-2-methyl-propionic acid] |
| < 200 nM | CCCCSc1ncccc1COc1ccc(CC(C)C(=O)O)cc1F (centres unmarked) [Example 61, 3-[4-(2-butylsulfanyl-pyridin-3-ylmethoxy)-3-fluoro-phenyl]-2-methyl-propionic acid] |
| < 200 nM | O=C(O)C1CC1c1cc(F)c(OCc2cccnc2SC2CCCC2)c(F)c1 (centres unmarked) [Example 62, 2-[4-(2-cyclopentylsulfanyl-pyridin-3-ylmethoxy)-3,5-difluoro-phenyl]-cyclopropane carboxylic acid] |
| < 200 nM | O=C(O)C1CC1c1cc(F)c(OCc2cccnc2SCC2CC2)c(F)c1 (centres unmarked) [Example 63, 2-[4-(2-cyclopropylmethylsulfanyl-pyridin-3-ylmethoxy)-3,5-difluoro-phenyl]-cyclopropane carboxylic acid] |
| < 200 nM | CC(C)Sc1ncccc1COc1c(F)cc(C2CC2C(=O)O)cc1F (centres unmarked) [Example 65, 2-[3,5-difluoro-4-(2-isopropylsulfanyl-pyridin-3-ylmethoxy)-phenyl]-cyclopropane carboxylic acid] |
| < 200 nM | CCCCSc1ncccc1COc1c(F)cc(C2CC2C(=O)O)cc1F (centres unmarked) [Example 66, 2-[4-(2-butylsulfanyl-pyridin-3-ylmethoxy)-3,5-difluoro-phenyl]-cyclopropane carboxylic acid] |
| 200 to 2000 nM | CC(C)Sc1cccc(COc2ccc3c(c2)OCC3CC(=O)O)n1 (centres unmarked) [Example 67, [6-(6-isopropylsulfanyl-pyridin-2-ylmethoxy)-2,3-dihydro-benzofuran-3-yl]-acetic acid] |
| 200 to 2000 nM | O=C(O)CC1COc2cc(OCc3cccc(SC4CCCC4)n3)ccc21 (centres unmarked) [Example 68, [6-(6-cyclopentylsulfanyl-pyridin-2-ylmethoxy)-2,3-dihydro-benzofuran-3-yl]-acetic acid] |
| 200 to 2000 nM | CC(C)Sc1ncccc1COc1ccc(CC(C)(C)C(=O)O)cc1 [Example 69, 3-[4-(2-isopropylsulfanyl-pyridin-3-ylmethoxy)-phenyl]-2,2-dimethyl-propionic acid] |
| 200 to 2000 nM | Cc1ncc(COc2c(F)cc(CCC(=O)O)cc2F)c(SC(C)C)n1 [Example 71, 3-[3,5-difluoro-4-(4-isopropylsulfanyl-2-methyl-pyrimidin-5-ylmethoxy)-phenyl]-prop ionic acid] |
| < 200 nM | COc1cc(CCC(=O)O)ccc1OCc1cccc(SC(C)C)n1 [Example 72, 3-[4-(6-isopropylsulfanyl-pyridin-2-ylmethoxy)-3-methoxy-phenyl]-propionic acid] |

same assay, conditions: CHO-K1 cells expressing Ga16 and hGPR120; Calcium 5 dye fluorescence; numeric value

| EC50 | SMILES |
| --- | --- |
| 454 nM | COc1cc(CCC(=O)O)ccc1OCc1cccnc1SC(C)C [Example 57, 3-[4-(2-isopropylsulfanyl-pyridin-3-ylmethoxy)-3-methoxy-phenyl]-propionic acid] |
| 108 nM | CC(C)Sc1cccc(COc2c(F)cc(C3CC3C(=O)O)cc2F)n1 (centres unmarked) [Example 64, 2-[3,5-difluoro-4-(6-isopropylsulfanyl-pyridin-2-ylmethoxy)-phenyl]-cyclopropane carboxylic acid] |
| 1880 nM | CC(C)Sc1cccc(COc2ccc(CC(C)(C)C(=O)O)cc2)n1 [Example 70, 3-[4-(6-isopropylsulfanyl-pyridin-2-ylmethoxy)-phenyl]-2,2-dimethyl-propionic acid] |
